Results: patent US20240385174A1, “METHOD FOR SCREENING SUBSTANCE THAT SUPPRESSES 4-METHYLACETOPHENONE ODOR, AND METHOD FOR SUPPRESSING 4-METHYL ACETOPHENONE ODOR” (AJINOMOTO CO., INC., priority 2022, published 2024)

How the values were obtained:
[1] = molecular target: T1, OR5P3 (Homo sapiens, UniProt Q8WZ94); assay: Screening for OR5P3 antagonist (luciferase assay, 2-heptanone as receptor-activating substance); format: cell-based; settings: inhibition of OR5P3 response to 2-heptanone (1000 μM); test substance 0.3-100 μM; HEK293T cells expressing OR5P3
T1 construct: host or cells: HEK293T
T1 sequence (Q8WZ94 with tags, fused parts or gaps): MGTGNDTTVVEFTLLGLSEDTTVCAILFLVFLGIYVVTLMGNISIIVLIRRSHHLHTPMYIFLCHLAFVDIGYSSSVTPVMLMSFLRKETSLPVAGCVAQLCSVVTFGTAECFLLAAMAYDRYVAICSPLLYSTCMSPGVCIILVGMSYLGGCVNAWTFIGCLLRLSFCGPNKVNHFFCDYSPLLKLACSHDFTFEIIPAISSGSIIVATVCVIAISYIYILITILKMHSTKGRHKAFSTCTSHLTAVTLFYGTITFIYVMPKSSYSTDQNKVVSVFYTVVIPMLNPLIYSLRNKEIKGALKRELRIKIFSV
Description: The expression vector mixture was allowed to stand for 20 minutes in a laminar flow cabinet and then added to HEK293T cells inoculated in 10-cm petri dishes the day before (2.5 to 3.5×10^6 cells/10-cm petri dish). After incubation for 5 hours in an incubator maintained at 37° C. and 5% CO2, the HEK293T cells were inoculated into each well of a 96-well plate (BD) in a volume of 100 μl (2.5×10^6 cells/ml), and cultured overnight in an incubator maintained at 37° C. and 5% CO2. […] As a control, the same procedure was performed by using the empty vector Rho-pME18S instead of the expression vector for human olfactory receptor in the expression vector mixture to obtain culture of the HEK293T cells transfected with the empty vector Rho-pME18S (hereinafter also referred to as the “control cells”).
The medium was removed from the culture of HEK293T cells expressing OR5P3 obtained in the section <1-2> mentioned above, and 60 μl of a mixed solution of a test substance and 2-heptanone (containing 100 μM test substance and 1000 μM 2-heptanone) or 60 μl of a 2-heptanone solution (containing 1000 μM 2-heptanone) was added to obtain a reaction solution. The solutions were prepared by dissolving the substances in CD293 (Life Technologies, Inc.). The cells were incubated in a CO2 incubator at 37° C. for 3 hours so that the firefly luciferase gene was sufficiently expressed in the cells. The value of luminescence derived from firefly luciferase in the cells was measured and designated as “Luc value”. The value of luminescence derived from firefly luciferase was measured by using Dual-Go™ Luciferase Assay System (Promega) according to the operation manual of the product.
Receptor response inhibition ratio of the test substance was calculated as follows. The Luc value (Y) in the cells not stimulated with 2-heptanone was subtracted from the Luc value (X) in the cells stimulated with 2-heptanone alone. Similarly, the Luc value (Y) in the cells not stimulated with 2-heptanone was subtracted from the Luc value (Z) in the cells stimulated with a mixture of 2-heptanone and the test substance. The receptor response inhibition ratio of the test substance was calculated in accordance with the following equation using the increase in value of luminescence caused by stimulation with 2-heptanone alone (X Y) as the standard. The experiment was performed in duplicate, and an average value was obtained.
The concentration of the test substance was 0.3, 1, 3, 10, 30, or 100 μM. The response of the receptor to 2-heptanone (1000 μM) in the presence of each concentration of the test substance was measured and represented as the relative response intensity based on the response intensity of the receptor to 2-heptanone (1000 μM) observed in the absence of the test substance, which was taken as 100%.

[2] = Test Example 3: sensory evaluation of citral-derived degradation odor-masking effect; format: in vivo; settings: score 0 to 10 (0 normal sample, 5 normal:degraded 1:1, 10 degraded sample); 100 ppm citral aqueous solution stored at 44° C. for two weeks; added ppm: decadienal 0.002, nonadienal 0.002, 2-methylbenzenethiol 0.165, S-(2-methyl-3-furyl) ethanethioate 0.120, piperine 6.667, nootkatone 10.000, sclareol 16.667; average of two experts
Description: A 100 ppm citral aqueous solution (stored under refrigeration after preparation) was used as a normal sample. This solution was stored at 44° C. for two weeks to generate a degraded odor derived from citral, and was used as a degraded sample. Evaluation samples were prepared by adding each of the compounds shown in Table 5 to the degraded sample at the concentrations shown in the same.
The citral-derived degradation odor intensity was scored as 0 to 10 on the basis of the following evaluation criteria. […] On the basis of the citral-derived degradation odor intensity, the citral-derived degradation odor-masking effect was evaluated.
• 0: Citral-derived degradation odor intensity of the normal sample • 5: Citral-derived degradation odor intensity of a mixture of the normal sample and degraded sample (normal sample:degraded sample=1:1) • 10: Citral-derived degradation odor intensity of the degraded sample

[3] = Test Example 4: sensory evaluation of lemon-derived degradation odor-masking effect (single compounds); format: in vivo; settings: score 0 to 10 (0 normal sample, 5 normal:degraded 1:1, 10 degraded sample); lemon beverage stored at 44° C. for 2 weeks; added ppm: decadienal 0.002, nonadienal 0.002, 2-methylbenzenethiol 0.165, S-(2-methyl-3-furyl) ethanethioate 0.120, piperine 6.667, nootkatone 10.000, sclareol 16.667; average of 2 experts
Description: A commercially available lemon beverage (Chelate Lemon W Lemon (Pokka Sapporo), stored under refrigeration after purchased) was used as a normal sample. This lemon beverage was stored at 44° C. for 2 weeks to generate a lemon-derived degradation odor and was used as a degraded sample. Evaluation samples were prepared by adding each of the compounds shown in Table 6 to the degraded sample at the concentrations shown in the same.
The lemon-derived degradation odor intensity was scored as 0 to 10 on the basis of the following evaluation criteria. […] On the basis of the lemon-derived degradation odor intensity, the lemon-derived degradation odor-masking effect was evaluated.
• 0: Lemon-derived degradation odor intensity of the normal sample • 5: Lemon-derived degradation odor intensity of a mixture of the normal sample and degraded sample (normal sample:degraded sample=1:1) • 10: Lemon-derived degradation odor intensity of the degraded sample

[4] = molecular target: T2, olfactory receptor OR5P3 (Homo sapiens, UniProt Q8WZ94); assay: Luciferase reporter gene assay: response of human olfactory receptors to 4-methylacetophenone; format: cell-based
T2 construct: host or cells: HEK293T
T2 sequence (Q8WZ94 with tags, fused parts or gaps): T1 sequence (Q8WZ94 with tags, fused parts or gaps)
From the text: The genes for the 352 types of human olfactory receptors were purchased from TrueClone cDNA Clone Collection (OriGene). Fragments for subcloning of the 352 types of human olfactory receptor genes were amplified by PCR using primers designed on the basis of sequence information available in GenBank and the purchased human olfactory receptor genes as the templates. Each of the amplified fragments for subcloning of the genes was subcloned into the Rho-pME18S vector (K. Kajiya et al., Journal of Neuroscience. 15 Aug. 2001, 21 (16) 6018-6025) downstream of the Rho tag sequence using the EcoRI and XhoI sites to obtain 352 types of expression vectors for human olfactory receptors.
HEK293T cells expressing each of the 352 types of olfactory receptors were prepared by the following procedure. […]
The olfactory receptors expressed by HEK293T cells conjugate with Golf to activate adenylate cyclase, and thereby increase the amount of intracellular cAMP. In this example, the olfactory receptor response was measured by using a luciferase reporter gene assay, in which the increase in intracellular cAMP amount is monitored as an increase in firefly luciferase-derived luminescence. […] In addition, value of the luminescence derived from Renilla luciferase was used as an internal standard to correct errors caused by differences in gene transfer efficiency and cell number in each well. […]

Q: For `CC(C)CC(O)Cc1ccccc1` (centres unmarked), which IC50 [1] is on record?
A: 67 µM

Q: For `CCC=CC=CC=O` [2,4-Heptadienal], which IC50 [1] is on record?
A: 78 µM

Q: For `Cc1ccccc1S` [2-Methylbenzenethiol], which “Evaluation score (citral-derived degradation odor intensity)” value [2] is on record?
A: 8

Q: What about the IC50 [1] of the same molecule?
A: 46 µM

Q: What about the “Evaluation score (lemon-derived degradation odor intensity)” value [3] of the same molecule?
A: 8

Q: With `CC=C(C=O)c1ccccc1` [2-Phenyl-2-butenal] as the molecule, how does the IC50 [1] read?
A: 65 µM

Q: With `SCCc1ccccc1` [2-Phenylethanethiol] as the molecule, how does the IC50 [1] read?
A: 17 µM

Q: For `SCc1cccs1` [2-Thiophenemethanethiol], which IC50 [1] is on record?
A: 39 µM

Q: For `Sc1cccs1` [2-Thiophenethiol], which IC50 [1] is on record?
A: 76 µM

Q: Which results are given for `CC(=O)c1ccc(C)cc1` [4-methylacetophenone]?
A: response of olfactory receptor OR5P3 to 4-methylacetophenone (olfactory receptor activity) ([4]; 300 μM and 30 μM 4-methylacetophenone, 352 types of human olfactory receptors expressed in HEK293T cells, FIGS. 1 and 2): OR5P3 showed a response; 4-methylacetophenone concentration dependency of the response of OR5P3 (fold increase) ([4]; HEK293T cells expressing OR5P3, n=3, FIG. 3): concentration-dependent manner

Q: With `CC=Cc1ccc(OCc2ccccc2)c(OC)c1` [Benzyl isoeugenol] as the molecule, how does the IC50 [1] read?
A: 49 µM

Q: For `S=C=NCc1ccccc1` [Benzyl isothiocyanate], which IC50 [1] is on record?
A: 19 µM

Q: With `c1coc(CSCc2ccco2)c1` [Difurfuryl sulfide] as the molecule, how does the IC50 [1] read?
A: 39 µM

Q: With `CCCCCCCCC(=O)NCc1ccc(O)c(OC)c1` [N-Vanillylnonanamide] as the molecule, how does the IC50 [1] read?
A: 2 µM

Q: With `C=C(C)[C@@H]1CCC2=CC(=O)C[C@@H](C)[C@]2(C)C1` [Nootkatone] as the molecule, how does the “Evaluation score (citral-derived degradation odor intensity)” value [2] read?
A: 5.5

Q: What about the IC50 [1] of the same molecule?
A: 8.1 µM

Q: What about the “Evaluation score (lemon-derived degradation odor intensity)” value [3] of the same molecule?
A: 6

Q: With `O=C(/C=C/C=C/c1ccc2c(c1)OCO2)N1CCCCC1` [Piperine] as the molecule, how does the “Evaluation score (citral-derived degradation odor intensity)” value [2] read?
A: 6

Q: What about the “Evaluation score (lemon-derived degradation odor intensity)” value [3] of the same molecule?
A: 8

Q: Which “Evaluation score (citral-derived degradation odor intensity)” value [2] does the source give for `CC(=O)Sc1ccoc1C` [S-(2-Methyl-3-furyl) ethanethioate] here?
A: 6

Q: What about the IC50 [1] of the same molecule?
A: 45 µM

Q: What about the “Evaluation score (lemon-derived degradation odor intensity)” value [3] of the same molecule?
A: 6

Q: With `C=C[C@](C)(O)CC[C@@H]1[C@@]2(C)CCCC(C)(C)[C@@H]2CC[C@@]1(C)O` [Sclareol] as the molecule, how does the “Evaluation score (citral-derived degradation odor intensity)” value [2] read?
A: 5.5

Q: What about the “Evaluation score (lemon-derived degradation odor intensity)” value [3] of the same molecule?
A: 6

Q: With `CCCCC/C=C/C=C/C=O` [trans, trans-2,4-Decadienal] as the molecule, how does the “Evaluation score (citral-derived degradation odor intensity)” value [2] read?
A: 5

Q: What about the “Evaluation score (lemon-derived degradation odor intensity)” value [3] of the same molecule?
A: 6

Q: With `CCCC/C=C/C=C/C=O` [trans, trans-2,4-Nonadienal] as the molecule, how does the “Evaluation score (citral-derived degradation odor intensity)” value [2] read?
A: 7

Q: And the “Evaluation score (lemon-derived degradation odor intensity)” value [3]?
A: 7.5
